From publication PMC9499506, “TNF-α and IL-1β Modulate Blood-Brain Barrier Permeability and Decrease Amyloid-β Peptide Efflux in a Human Blood-Brain Barrier Model” (International Journal of Molecular Sciences, 2022)

Assays:
[1] = system: BLECs; test: Immunostaining of tight junction proteins in BLECs (localization, area fraction staining); type: cell-based, human; details: 10 ng·mL^−1, 24 h; for BLEC morphology and TJ protein localization: immunofluorescence of ZO-1, occludin, claudin-3, claudin-5
Method: After 24 h of treatment with or without proinflammatory cytokines, BLECs were fixed and permeabilized, as described in Table 1. Then, a blocking step was performed with Sea Block Blocking Buffer (#37527 from Thermofisher, Rockford, IL, USA) for 30 min. BLECs were incubated for 1 h with the primary antibody in phosphate buffered saline, calcium-magnesium-free (PBS-CMF; 0.2 g·L^−1 KH2PO4, 8.0 g·L^−1 NaCl, 2.87 g·L^−1 Na2HPO4–12H2O, and 0.2 g·L^−1 KCl) with 2% (v/v) normal goat serum (NGS) at room temperature (RT) against targeted proteins, as described in Table 1.
After three washes with PBS-CMF supplemented with 2% NGS, BLECs were incubated with secondary polyclonal antibody (goat anti-rabbit Alexa 568, A11036, Molecular Probes, Eugene, OR, USA) diluted 1:500 in PBS-CMF supplemented with 2% NGS in the dark for 30 min at RT. Then, ProLong™ Diamond Antifade Mountant with DAPI (#P36962, Invitrogen) was used for nuclei staining and mounting. The stained slides were conserved in the fridge. The staining images were taken using a Leica microscope (DMRD; Leica Microsystems, Wetzlar, Germany) and processed using ImageJ software.
Claudin-3 and claudin-5 area fraction staining were subsequently quantified within the BLECs using ImageJ software. Staining images from the same experiment were taken with the same threshold according to the staining, and could thus be compared with each other. Due to the absence of BLEC delineation, the total fraction area staining for each image was thus quantified and normalized by the number of nuclei. Studies were performed with at least three independent experiments and at least three randomized staining images per experiment containing around 50 BLECs each.

[2] = system: BLEC monolayer; test: Effect of cytokines on BLEC monolayer permeability to lucifer yellow (PeLY); type: cell-based, human; details: for increase in transcellular passage of LY through BLEC monolayer compared to control / increase in paracellular passage of LY through BLEC monolayer compared to control: 10 ng·mL^−1, 24 h; for increase in transcellular passage of LY through BLEC monolayer compared to control: PeLY 37 °C minus PeLY 4 °C; for increase in paracellular passage of LY through BLEC monolayer compared to control: PeLY at 4 °C; for PeLY of BLECs after cytokine treatment: 10 ng·mL^−1 basolateral, 24 h, LY 50 µM apical-to-basolateral, RH buffer, 37 °C, 60 min, untreated 0.54 ± 0.03, mean ± SEM
Method: Next, we examined the effect of TNF-α and IL-1β on BBB permeability. The physical integrity of the BLECs was monitored by measuring the rate of passage of the small hydrophilic marker lucifer yellow (LY; ~400 Da) from the upper to the lower compartment to calculate the endothelial permeability coefficient of LY (PeLY).
To discriminate the impact of TNF-α and IL-1β on these different pathways and based on our previous PeLY results obtained at 37 °C informing on the global crossing of PeLY (paracellular and transcellular), a PeLY experiment was also performed at 4 °C. […] Thus, inhibition of the transcellular transport allows us to observe only the modification on the paracellular permeability. Then, the transcellular transport of LY, corresponding to the difference between global PeLY and PeLY at 4 °C, was determined.
Each condition was studied in triplicate.
The BLEC monolayer integrity was evaluated after each treatment using the method described by Dehouck and colleagues. The endothelial permeability coefficient (Pe) was evaluated regarding the apical-to-basolateral transport of the LY integrity marker used at a final concentration of 50 µM in RH buffer at 37 °C. Briefly, the inserts containing BLECs were transferred to a new 12-well plate containing warm RH buffer (corresponding to the basolateral compartment), and then a volume of 500 µL of warm RH with 50 µM of LY buffer was added to the apical compartment. The inserts containing the BLECs and RH buffer with 50 µM of LY were then transferred to a new well containing warm RH every 20 min for 1 hour. […] For each condition, coculturing was performed in triplicate. To determine the PeLY values for BLECs, the slope of the clearance curves (PS = permeability × surface area product; in µL·min^−1) corresponding to the volume cleared from the apical to the basolateral compartment (in µL) for 60 min was calculated for the filters with only Matrigel coating and for those with Matrigel coating and BLECs, denoted PSf and PSt, respectively. From these values, the PS values for BLECs (PSe) were determined according to the formula “[…]”. Then, the PeLY values for BLECs (in cm·min^−1) were obtained by the calculation “PeLY = PSe/S”, with PSe in cm^3·min^−1 and S being the filter surface area (= 1.12 cm^2). The same experiment was also performed at 4 °C to block the transcellular permeability of LY and to identify only the paracellular permeability of LY. Following these experiments, the transcellular permeability can be deduced, which corresponds to the PeLY values at 37 °C subtracted by those of PeLY at 4 °C. The mass balance (in %) was determined from the amount of LY in the apical and basolateral compartment at the end of the experiment divided by the total amount initially added in the apical compartment at time zero. To be taken into consideration for the Pe determination, the mass balance should be between 80% and 120%.

[3] = immunofluorescence, ImageJ, normalized by number of nuclei

Substance	BLEC morphology and TJ protein localization [1]	increase of claudin-5 area fraction staining compared to IL-1β treatment [1, 3]	increase of claudin-5 area fraction staining compared to control condition [1, 3]	claudin-3 area fraction staining, increase compared to IL-1β treatment ([1]; immunofluorescence, ImageJ, normalized by number of nuclei, printed as 'at')	increase in transcellular passage of LY through BLEC monolayer compared to control [2]	increase in paracellular passage of LY through BLEC monolayer compared to control [2]	PeLY of BLECs after cytokine treatment [2]	greater increase in paracellular passage of LY with TNF-α compared to IL-1β treatment ([2]; both 10 ng·mL^−1, 24 h)	greater increase in transcellular passage of LY with IL-1β compared to TNF-α treatment ([2]; both 10 ng·mL^−1, 24 h)
tumor necrosis factor-α [TNF-α]	induces a change in BLEC morphology and an increase of claudin-3 and claudin-5 cytoplasmic staining	162.1%	161.8%	129.8%	40.1%	175.2%	1.00 ± 0.03 × 10^−3 cm·min^−1	133.9%	
interleukin-1β [IL-1β]	did not cause changes in BLEC morphology and TJ protein localization				94.2%	41.3%	0.95 ± 0.05 × 10^−3 cm·min^−1		54.2%
